From ChEMBL document CHEMBL1201862, “PubChem BioAssay data set” (2004)
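A five-concentration, 48-hour dose response in 96-well plates underlies each endpoint, interpolated linearly between surrounding concentrations. GI50 marks 50% less growth.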 Activity calls are given as the source filed them. No stated cut-off is given here; in the data, active = GI50 up to about 1.1 µM and inactive = higher.

What was measured:
Test in all cases: NCI anticancer screen, dose series, 48 h
786-0 = test system: 786-0
A549 = test system: A549
ACHN = test system: ACHN
BT-549 = test system: BT-549
CAKI-1 = test system: CAKI-1
CCRF-CEM = test system: CCRF-CEM
COLO 205 = test system: COLO 205
DU-145 = test system: DU-145
EKVX = test system: EKVX
HCC 2998 = test system: HCC 2998
HCT-116 = test system: HCT-116
HCT-15 = test system: HCT-15
HL-60 = test system: HL-60
HOP-62 = test system: HOP-62
HOP-92 = test system: HOP-92
HT-29 = test system: HT-29
Hs-578T = test system: Hs-578T
IGROV-1 = test system: IGROV-1
K562 = test system: K562
KM12 = test system: KM12
M14 = test system: M14
MCF7 = test system: MCF7
MDA-MB-231 = test system: MDA-MB-231
MDA-MB-435 = test system: MDA-MB-435
MDA-N = test system: MDA-N
MOLT-4 = test system: MOLT-4
Malme-3M = test system: Malme-3M
NCI-H226 = test system: NCI-H226
NCI-H23 = test system: NCI-H23
NCI-H460 = test system: NCI-H460
NCI-H522 = test system: NCI-H522
NCI/ADR-RES = test system: NCI/ADR-RES
OVCAR-3 = test system: OVCAR-3
OVCAR-4 = test system: OVCAR-4
OVCAR-5 = test system: OVCAR-5
OVCAR-8 = test system: OVCAR-8
PC-3 = test system: PC-3
RPMI-8226 = test system: RPMI-8226
RXF 393 = test system: RXF 393
SF-268 = test system: SF-268
SF-295 = test system: SF-295
SF-539 = test system: SF-539
SK-MEL-28 = test system: SK-MEL-28
SK-MEL-2 = test system: SK-MEL-2
SK-MEL-5 = test system: SK-MEL-5
SK-OV-3 = test system: SK-OV-3
SN12C = test system: SN12C
SNB-19 = test system: SNB-19
SNB-75 = test system: SNB-75
SR = test system: SR
SW-620 = test system: SW-620
T47D = test system: T47D
TK-10 = test system: TK-10
U-251 = test system: U-251
UACC-257 = test system: UACC-257
UO-31 = test system: UO-31
A498 = test system: A498
LOX IMVI = test system: LOX IMVI
UACC-62 = test system: UACC-62

`Cc1ccc(-c2n[nH]c(=O)n2/N=C\c2ccccc2O)cc1` was tested, and the GI50 (786-0) was > 100 µM (inactive), the GI50 (A549) was > 100 µM (inactive) and the GI50 (ACHN) was > 100 µM (inactive). For the same compound, the GI50 (BT-549) was > 100 µM (inactive), the GI50 (CAKI-1) was > 100 µM (inactive) and the GI50 (CCRF-CEM) was > 100 µM (inactive). The GI50 (COLO 205) was > 100 µM (inactive), the GI50 (DU-145) was > 100 µM (inactive) and the GI50 (EKVX) was > 100 µM (inactive). The GI50 (HCC 2998) was > 100 µM (inactive), the GI50 (HCT-116) was > 100 µM (inactive) and the GI50 (HCT-15) was over 100 µM. The GI50 (HL-60) was > 100 µM (inactive), the GI50 (HOP-62) was > 100 µM (inactive) and the GI50 (HOP-92) was > 100 µM (inactive). The GI50 (HT-29) was > 100 µM (inactive), the GI50 (Hs-578T) was 51.4 µM (inactive) and the GI50 (IGROV-1) was > 100 µM (inactive). The GI50 (K562) was > 100 µM (inactive), the GI50 (KM12) was > 100 µM (inactive) and the GI50 (M14) was > 100 µM (inactive). For the same compound, the GI50 (MCF7) was 55.6 µM (inactive), the GI50 (MDA-MB-231) was 68.5 µM (inactive) and the GI50 (MDA-MB-435) was > 100 µM (inactive). For the same compound, the GI50 (MDA-N) was > 100 µM (inactive), the GI50 (MOLT-4) was > 100 µM (inactive) and the GI50 (Malme-3M) was > 100 µM (inactive). The GI50 (NCI-H226) was > 100 µM (inactive), the GI50 (NCI-H23) was > 100 µM (inactive) and the GI50 (NCI-H460) was > 100 µM (inactive). The GI50 (NCI-H522) was > 100 µM (inactive), the GI50 (NCI/ADR-RES) was > 100 µM (inactive) and the GI50 (OVCAR-3) was > 100 µM (inactive). For the same compound, the GI50 (OVCAR-4) was > 100 µM (inactive), the GI50 (OVCAR-5) was > 100 µM (inactive) and the GI50 (OVCAR-8) was > 100 µM (inactive). The GI50 (PC-3) was > 100 µM (inactive), the GI50 (RPMI-8226) was > 100 µM (inactive) and the GI50 (RXF 393) was 57.8 µM (inactive). For the same compound, the GI50 (SF-268) was > 100 µM (inactive), the GI50 (SF-295) was > 100 µM (inactive) and the GI50 (SF-539) was > 100 µM (inactive). For the same compound, the GI50 (SK-MEL-28) was > 100 µM (inactive), the GI50 (SK-MEL-2) was > 100 µM (inactive) and the GI50 (SK-MEL-5) was > 100 µM (inactive). The GI50 (SK-OV-3) was 81.3 µM (inactive), the GI50 (SN12C) was > 100 µM (inactive) and the GI50 (SNB-19) was > 100 µM (inactive). The GI50 (SNB-75) was > 100 µM (inactive), the GI50 (SR) was > 100 µM (inactive) and the GI50 (SW-620) was > 100 µM (inactive). For the same compound, the GI50 (T47D) was 94 µM (inactive), the GI50 (TK-10) was > 100 µM (inactive) and the GI50 (U-251) was > 100 µM (inactive). For the same compound, the GI50 (UACC-257) was > 100 µM (inactive) and the GI50 (UO-31) was > 100 µM (inactive).

In the case of `NS(=O)(=O)c1cc2c(cc1Cl)NC(Cc1ccccc1)NS2(=O)=O` (stereo not given) [BENZYLHYDROCHLOROTHIAZIDE], the GI50 (786-0) is reported as > 100 µM (inactive), the GI50 (A498) is reported as > 100 µM (inactive) and the GI50 (A549) is reported as > 100 µM (inactive). For the same compound, the GI50 (ACHN) was > 100 µM (inactive), the GI50 (BT-549) was > 100 µM (inactive) and the GI50 (CAKI-1) was > 100 µM (inactive). The GI50 (COLO 205) was > 100 µM (inactive), the GI50 (DU-145) was > 100 µM (inactive) and the GI50 (EKVX) was > 100 µM (inactive). The GI50 (HCC 2998) was > 100 µM (inactive), the GI50 (HCT-116) was 46.1 µM (inactive) and the GI50 (HCT-15) was over 100 µM. The GI50 (HOP-62) was > 100 µM (inactive), the GI50 (HOP-92) was > 100 µM (inactive) and the GI50 (HT-29) was > 100 µM (inactive). The GI50 (Hs-578T) was > 100 µM (inactive), the GI50 (IGROV-1) was > 100 µM (inactive) and the GI50 (K562) was 63.1 µM (inactive). The GI50 (KM12) was > 100 µM (inactive), the GI50 (LOX IMVI) was 99.8 µM (inactive) and the GI50 (M14) was > 100 µM (inactive). For the same compound, the GI50 (MCF7) was 60.4 µM (inactive), the GI50 (MDA-MB-231) was > 100 µM (inactive) and the GI50 (MDA-MB-435) was 45.1 µM (inactive). For the same compound, the GI50 (MDA-N) was 53.7 µM (inactive), the GI50 (Malme-3M) was > 100 µM (inactive) and the GI50 (NCI-H226) was > 100 µM (inactive). For the same compound, the GI50 (NCI-H23) was > 100 µM (inactive), the GI50 (NCI-H460) was > 100 µM (inactive) and the GI50 (NCI-H522) was > 100 µM (inactive). For the same compound, the GI50 (NCI/ADR-RES) was > 100 µM (inactive), the GI50 (OVCAR-3) was > 100 µM (inactive) and the GI50 (OVCAR-4) was > 100 µM (inactive). The GI50 (OVCAR-5) was > 100 µM (inactive), the GI50 (OVCAR-8) was > 100 µM (inactive) and the GI50 (PC-3) was > 100 µM (inactive). For the same compound, the GI50 (RPMI-8226) was 53.1 µM (inactive), the GI50 (RXF 393) was > 100 µM (inactive) and the GI50 (SF-268) was > 100 µM (inactive). The GI50 (SF-295) was > 100 µM (inactive), the GI50 (SF-539) was 45.1 µM (inactive) and the GI50 (SK-MEL-28) was > 100 µM (inactive). For the same compound, the GI50 (SK-MEL-2) was > 100 µM (inactive), the GI50 (SK-MEL-5) was > 100 µM (inactive) and the GI50 (SK-OV-3) was > 100 µM (inactive). The GI50 (SN12C) was > 100 µM (inactive), the GI50 (SNB-19) was > 100 µM (inactive) and the GI50 (SNB-75) was > 100 µM (inactive). The GI50 (SR) was 61 µM (inactive), the GI50 (SW-620) was 41.7 µM (inactive) and the GI50 (T47D) was > 100 µM (inactive). The GI50 (TK-10) was > 100 µM (inactive), the GI50 (U-251) was > 100 µM (inactive) and the GI50 (UACC-257) was > 100 µM (inactive). For the same compound, the GI50 (UACC-62) was > 100 µM (inactive) and the GI50 (UO-31) was > 100 µM (inactive).

`CNC(=O)OCc1c2ccncc2c(C)c2c1[nH]c1ccccc12` was tested, and the GI50 (786-0) was 0.262 µM (active), the GI50 (A498) was 0.202 µM (active) and the GI50 (A549) was 0.251 µM (active). The GI50 (ACHN) was 0.0841 µM (active), the GI50 (BT-549) was 0.32 µM (active) and the GI50 (CAKI-1) was 0.141 µM (active). The GI50 (CCRF-CEM) was 0.0962 µM (active), the GI50 (COLO 205) was 0.443 µM (active) and the GI50 (DU-145) was 0.269 µM (active). For the same compound, the GI50 (EKVX) was 0.372 µM (active), the GI50 (HCC 2998) was 0.206 µM (active) and the GI50 (HCT-116) was 0.184 µM (active). The GI50 (HCT-15) was 0.234 µM, the GI50 (HOP-62) was 0.494 µM (active) and the GI50 (HOP-92) was 0.695 µM (active). The GI50 (HT-29) was 0.215 µM (active), the GI50 (Hs-578T) was 0.413 µM (active) and the GI50 (IGROV-1) was 0.182 µM (active). For the same compound, the GI50 (K562) was 0.275 µM (active), the GI50 (KM12) was 0.449 µM (active) and the GI50 (LOX IMVI) was 0.136 µM (active). The GI50 (M14) was 1.18 µM (inactive), the GI50 (MCF7) was 0.0455 µM (active) and the GI50 (MDA-MB-231) was 0.48 µM (active). The GI50 (MDA-MB-435) was 0.421 µM (active), the GI50 (MDA-N) was 0.501 µM (active) and the GI50 (MOLT-4) was 0.0659 µM (active). The GI50 (Malme-3M) was 0.372 µM (active), the GI50 (NCI-H226) was 0.258 µM (active) and the GI50 (NCI-H23) was 0.195 µM (active). The GI50 (NCI-H460) was 0.167 µM (active), the GI50 (NCI-H522) was 0.0646 µM (active) and the GI50 (NCI/ADR-RES) was 0.24 µM (active). The GI50 (OVCAR-3) was 0.28 µM (active), the GI50 (OVCAR-4) was 0.271 µM (active) and the GI50 (OVCAR-5) was 0.296 µM (active). For the same compound, the GI50 (OVCAR-8) was 0.125 µM (active), the GI50 (PC-3) was 0.723 µM (active) and the GI50 (RPMI-8226) was 0.134 µM (active). The GI50 (RXF 393) was < 0.0385 µM (active), the GI50 (SF-268) was 0.272 µM (active) and the GI50 (SF-295) was 0.292 µM (active). For the same compound, the GI50 (SF-539) was 0.207 µM (active), the GI50 (SK-MEL-28) was 0.818 µM (active) and the GI50 (SK-MEL-2) was 0.261 µM (active). For the same compound, the GI50 (SK-MEL-5) was 0.242 µM (active), the GI50 (SK-OV-3) was 0.288 µM (active) and the GI50 (SN12C) was 0.275 µM (active). The GI50 (SNB-19) was 0.372 µM (active), the GI50 (SNB-75) was 0.21 µM (active) and the GI50 (SR) was < 0.01 µM (active). For the same compound, the GI50 (SW-620) was 0.136 µM (active), the GI50 (T47D) was 0.331 µM (active) and the GI50 (TK-10) was 0.237 µM (active). For the same compound, the GI50 (U-251) was 0.223 µM (active), the GI50 (UACC-257) was 0.587 µM (active) and the GI50 (UACC-62) was 0.238 µM (active). For the same compound, the GI50 (UO-31) was 0.231 µM (active).
